Read-outs that look alike come from different tables or passages of the source. One block for each compound: values may come before it.
Experiments:
CCNE1-normal SKOV3 cells = assay: Cell growth inhibition of CCNE1-normal SKOV3 cells (CellTiter-Glo); assay type: cell-based; details: Homo sapiens, SK-OV-3, 144 h, 6 days
Summary of the method: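 Growth was measured by CellTiter-Glo luminescence after 6 days' compound exposure at 37 °C. Cells were plated one day before dosing at 1000 per well in medium with 10% FBS, and compounds were diluted from DMSO stocks.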

[1] = test system: CCNE1-amplified OVCAR3 cells; assay: Cell growth inhibition of CCNE1-amplified OVCAR3 cells (CellTiter-Glo); assay type: cell-based; details: Homo sapiens, OVCAR-3, 144 h, 6 days
Summary of the method: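 Growth read-out was CellTiter-Glo luminescence, taken after 10 min at room temperature at the end of a 6-day compound exposure at 37 °C. Compounds were diluted from DMSO stocks across various concentrations.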

CDK4-CYCLIN D1 = CDK4-CYCLIN D1 (Homo sapiens, UniProt P11802); assay: CDK protein kinase inhibition by ADP-Glo assay, CDK4-CYCLIN D1; assay type: biochemical; details: for IC50: read-out: CDK4-CYCLIND1, IC50; for CDK2 Fold selectivity, CDK4: CDK2 versus CDK4
Sequence of CDK4-CYCLIN D1 (P11802 whole entry): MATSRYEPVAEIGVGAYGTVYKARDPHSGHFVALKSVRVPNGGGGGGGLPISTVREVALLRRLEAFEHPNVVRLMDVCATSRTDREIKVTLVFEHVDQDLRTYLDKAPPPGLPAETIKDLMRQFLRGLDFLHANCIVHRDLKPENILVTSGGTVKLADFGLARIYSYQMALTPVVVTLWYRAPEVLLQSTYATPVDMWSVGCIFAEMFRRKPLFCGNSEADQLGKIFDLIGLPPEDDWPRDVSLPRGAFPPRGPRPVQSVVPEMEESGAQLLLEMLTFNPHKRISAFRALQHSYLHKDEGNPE
Sequence of CDK4-CYCLIN D1 (P24385 whole entry partner): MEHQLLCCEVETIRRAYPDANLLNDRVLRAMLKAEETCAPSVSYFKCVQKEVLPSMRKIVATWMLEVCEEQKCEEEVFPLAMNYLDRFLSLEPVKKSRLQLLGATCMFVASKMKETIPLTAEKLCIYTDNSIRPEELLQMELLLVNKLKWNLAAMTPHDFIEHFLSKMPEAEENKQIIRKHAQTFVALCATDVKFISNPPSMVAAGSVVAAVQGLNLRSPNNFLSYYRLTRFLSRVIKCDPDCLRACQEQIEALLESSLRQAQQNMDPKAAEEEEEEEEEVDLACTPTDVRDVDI
Summary of the method: (§1)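 Luminescent ADP-Glo readout quantified ADP produced as peptide phosphorylation by each kinase/cyclin pair. Reactions ran at 22° C in HEPES pH 7.5 buffer (DTT, BSA, Triton X-100, orthovanadate, β-glycerophosphate, 5 mM Mg2+) with ATP at 1000 μM and 1% DMSO.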

CDK1-CYCLIN B = CDK1-CYCLIN B (Homo sapiens, UniProt P06493); assay: CDK protein kinase inhibition by ADP-Glo assay, CDK1-CYCLIN B; assay type: biochemical; details: for IC50: read-out: CDK1-CYCLINB, IC50; for CDK2 Fold selectivity, CDK1: CDK2 versus CDK1
Sequence of CDK1-CYCLIN B (P06493 whole entry): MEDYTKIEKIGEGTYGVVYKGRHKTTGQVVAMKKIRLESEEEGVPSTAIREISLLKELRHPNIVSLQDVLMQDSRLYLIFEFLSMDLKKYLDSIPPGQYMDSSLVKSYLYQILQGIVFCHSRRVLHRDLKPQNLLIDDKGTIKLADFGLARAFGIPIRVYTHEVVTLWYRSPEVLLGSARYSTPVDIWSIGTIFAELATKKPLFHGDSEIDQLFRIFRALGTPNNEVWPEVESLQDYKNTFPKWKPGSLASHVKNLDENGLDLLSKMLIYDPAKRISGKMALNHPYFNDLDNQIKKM
Sequence of CDK1-CYCLIN B (P14635 whole entry partner): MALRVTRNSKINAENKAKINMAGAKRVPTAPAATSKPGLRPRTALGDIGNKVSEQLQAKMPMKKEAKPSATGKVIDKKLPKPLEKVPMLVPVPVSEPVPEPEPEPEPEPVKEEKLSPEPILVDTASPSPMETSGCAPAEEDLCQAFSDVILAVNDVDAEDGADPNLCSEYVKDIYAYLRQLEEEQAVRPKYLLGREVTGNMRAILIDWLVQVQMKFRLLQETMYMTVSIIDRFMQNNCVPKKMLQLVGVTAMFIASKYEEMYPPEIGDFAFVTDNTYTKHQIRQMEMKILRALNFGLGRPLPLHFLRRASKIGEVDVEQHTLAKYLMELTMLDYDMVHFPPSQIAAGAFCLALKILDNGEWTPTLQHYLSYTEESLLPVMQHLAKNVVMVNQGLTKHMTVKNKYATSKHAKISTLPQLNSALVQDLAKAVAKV
Summary of the method: as §1

[2] = test system: Phospho-Rb (Ser807/811) in OVCAR3 cells; assay: Phospho-Rb expression inhibition in OVCAR3 cells quantified by In Cell Western; assay type: cell-based; details: Homo sapiens, OVCAR-3, 24 hours, read-out: OVCAR-3 pRb IC50
Summary of the method: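 In-cell western: after 24 h compound exposure at 37° C, fixed OVCAR3 cells co-stained for pRb Ser807/811 (800 nm channel) and total Rb (680 nm channel), imaged by LI-COR Odyssey.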

CDK2-CYCLIN E1 = CDK2-CYCLIN E1 (Homo sapiens, UniProt P24941); assay: CDK protein kinase inhibition by ADP-Glo assay, CDK2-CYCLIN E1; assay type: biochemical; details: read-out: CDK2-CYCLINE, IC50
Summary of the method: as §1

CDK6-CYCLIN D3 = CDK6-CYCLIN D3 (Homo sapiens, UniProt Q00534); assay: CDK protein kinase inhibition by ADP-Glo assay, CDK6-CYCLIN D3; assay type: biochemical; details: for IC50: read-out: CDK6-CYCLIND3, IC50; for CDK2 Fold selectivity, CDK6: CDK2 versus CDK6
Sequence of CDK6-CYCLIN D3 (Q00534 whole entry): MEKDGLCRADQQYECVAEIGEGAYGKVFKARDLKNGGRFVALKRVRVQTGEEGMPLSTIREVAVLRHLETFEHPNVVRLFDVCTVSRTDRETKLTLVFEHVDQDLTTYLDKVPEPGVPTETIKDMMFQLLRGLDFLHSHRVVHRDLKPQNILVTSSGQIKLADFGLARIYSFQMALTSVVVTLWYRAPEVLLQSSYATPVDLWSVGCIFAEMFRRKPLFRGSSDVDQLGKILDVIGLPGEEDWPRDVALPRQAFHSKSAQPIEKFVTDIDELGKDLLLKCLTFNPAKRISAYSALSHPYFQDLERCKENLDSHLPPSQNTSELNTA
Sequence of CDK6-CYCLIN D3 (P30281 whole entry partner): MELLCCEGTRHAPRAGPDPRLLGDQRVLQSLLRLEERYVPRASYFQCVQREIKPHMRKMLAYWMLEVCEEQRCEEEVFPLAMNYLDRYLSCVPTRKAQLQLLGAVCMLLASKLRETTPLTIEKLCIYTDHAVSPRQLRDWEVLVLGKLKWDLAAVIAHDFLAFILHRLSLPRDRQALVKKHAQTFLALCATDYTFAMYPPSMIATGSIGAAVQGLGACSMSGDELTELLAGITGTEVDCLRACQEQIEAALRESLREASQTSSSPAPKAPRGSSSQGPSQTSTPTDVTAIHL
Summary of the method: as §1

CDK9-CYCLIN T1 = CDK9-CYCLIN T1 (Homo sapiens, UniProt P50750); assay: CDK protein kinase inhibition by ADP-Glo assay, CDK9-CYCLIN T1; assay type: biochemical; details: for IC50: read-out: CDK9-CYCLINT1, IC50; for CDK2 Fold selectivity, CDK9: CDK2 versus CDK9
Sequence of CDK9-CYCLIN T1 (P50750 whole entry): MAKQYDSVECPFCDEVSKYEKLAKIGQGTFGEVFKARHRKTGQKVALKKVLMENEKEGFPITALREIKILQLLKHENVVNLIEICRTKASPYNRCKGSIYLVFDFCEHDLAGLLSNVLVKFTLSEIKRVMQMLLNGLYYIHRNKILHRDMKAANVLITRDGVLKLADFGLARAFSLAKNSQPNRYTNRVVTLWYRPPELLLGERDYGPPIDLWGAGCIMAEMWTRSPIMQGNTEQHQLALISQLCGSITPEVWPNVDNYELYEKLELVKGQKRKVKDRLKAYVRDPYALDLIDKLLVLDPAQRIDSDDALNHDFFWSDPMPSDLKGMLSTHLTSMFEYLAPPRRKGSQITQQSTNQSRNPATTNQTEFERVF
Sequence of CDK9-CYCLIN T1 (O60563 whole entry partner): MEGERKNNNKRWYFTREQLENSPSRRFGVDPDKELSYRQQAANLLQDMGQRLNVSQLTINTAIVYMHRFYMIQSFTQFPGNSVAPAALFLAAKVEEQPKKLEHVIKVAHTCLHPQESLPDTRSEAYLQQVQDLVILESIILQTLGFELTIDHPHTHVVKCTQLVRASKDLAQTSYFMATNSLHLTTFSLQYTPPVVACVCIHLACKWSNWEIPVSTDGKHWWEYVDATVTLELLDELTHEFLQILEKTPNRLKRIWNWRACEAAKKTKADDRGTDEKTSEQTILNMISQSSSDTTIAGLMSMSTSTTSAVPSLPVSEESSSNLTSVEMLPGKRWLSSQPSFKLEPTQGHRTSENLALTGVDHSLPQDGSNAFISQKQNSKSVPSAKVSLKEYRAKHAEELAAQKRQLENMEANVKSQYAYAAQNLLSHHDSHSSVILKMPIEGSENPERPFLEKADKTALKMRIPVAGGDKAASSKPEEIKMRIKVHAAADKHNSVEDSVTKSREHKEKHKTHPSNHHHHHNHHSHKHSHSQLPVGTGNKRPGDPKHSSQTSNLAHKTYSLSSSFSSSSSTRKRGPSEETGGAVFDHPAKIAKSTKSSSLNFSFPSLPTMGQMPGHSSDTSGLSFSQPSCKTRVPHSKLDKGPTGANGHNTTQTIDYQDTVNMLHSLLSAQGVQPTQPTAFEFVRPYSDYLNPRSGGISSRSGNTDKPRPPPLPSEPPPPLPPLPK
Summary of the method: as §1

[3] = Table 35, recombinant CDK kinase

- IC50 [1]: ≤ 2 nM
- IC50 (CDK4-CYCLIN D1; ADP-Glo, 1000 μM ATP, Table 15): 10 to 50 nM
- CDK2 Fold selectivity, CDK4 (CDK4-CYCLIN D1; Table 16): E (E, <20)
- IC50 (CDK1-CYCLIN B; ADP-Glo, 1000 μM ATP, Table 15): ≤ 10 nM
- CDK2 Fold selectivity, CDK1 (CDK1-CYCLIN B; Table 16): E (E, <20)
- IC50 [2]: ≤ 2 nM
- IC50 (CDK2-CYCLIN E1; ADP-Glo, 1000 μM ATP, Table 15): ≤ 10 nM
- IC50 (CDK6-CYCLIN D3; ADP-Glo, 1000 μM ATP, Table 15): 10 to 50 nM
- CDK2 Fold selectivity, CDK6 (CDK6-CYCLIN D3; Table 16): E (E, <20)
- IC50 (CDK9-CYCLIN T1; ADP-Glo, 1000 μM ATP, Table 15): ≤ 10 nM
- CDK2 Fold selectivity, CDK9 (CDK9-CYCLIN T1; Table 16): E (E, <20)
SMILES: O=C1NC23CC(C/C=C/c4cncc(c4)Nc4cc(n[nH]4)[C@H]4CC[C@H](C4)O1)(C2)C3 [Compound 106, (1^1S,1^3R,2^4Z,5E)-2^1H-11-oxa-3,9-diaza-4(3,5)-pyridina-2(3,5)-pyrazola-8(1,3)-bicyclo[1.1.1]pentana-1(1,3)-cyclopentanacycloundecaphan-5-en-10-one]
- IC50 (CCNE1-normal SKOV3 cells): 10 to 50 nM

- IC50 [1]: ≤ 2 nM
- IC50 (CDK4-CYCLIN D1; ADP-Glo, 1000 μM ATP, Table 17): 10 to 50 nM
- CDK2 Fold selectivity, CDK4 (CDK4-CYCLIN D1; Table 18): E (E, <20)
- IC50 (CDK1-CYCLIN B; ADP-Glo, 1000 μM ATP, Table 17): ≤ 10 nM
- CDK2 Fold selectivity, CDK1 (CDK1-CYCLIN B; Table 18): E (E, <20)
- IC50 [2]: ≤ 2 nM
- IC50 (CDK2-CYCLIN E1; ADP-Glo, 1000 μM ATP, Table 17): ≤ 10 nM
- IC50 (CDK6-CYCLIN D3; ADP-Glo, 1000 μM ATP, Table 17): 10 to 50 nM
- CDK2 Fold selectivity, CDK6 (CDK6-CYCLIN D3; Table 18): E (E, <20)
- IC50 (CDK9-CYCLIN T1; ADP-Glo, 1000 μM ATP, Table 17): ≤ 10 nM
- CDK2 Fold selectivity, CDK9 (CDK9-CYCLIN T1; Table 18): E (E, <20)
SMILES: O=C1NC23CC(C/C=C/c4cc(ccn4)Nc4cc(n[nH]4)[C@H]4CC[C@H](C4)O1)(C2)C3 [Compound 107, (11S,13R,24Z,5E)-21H-11-oxa-3,9-diaza-4(4,2)-pyridina-2(3,5)-pyrazola-8(1,3)-bicyclo[1.1.1]pentana-1(1,3)-cyclopentanacycloundecaphan-5-en-10-one]
- IC50 (CCNE1-normal SKOV3 cells): 10 to 50 nM

- IC50 [1]: 2 to 10 nM
- IC50 (CDK4-CYCLIN D1; ADP-Glo, 1000 μM ATP, Table 11): 100 to 500 nM
- CDK2 Fold selectivity, CDK4 (CDK4-CYCLIN D1; Table 12): B (B, >100 and ≤500)
- IC50 (CDK4-CYCLIN D1; [3]): 10 to 50 nM
- CDK2 Fold selectivity against CDK4 (CDK4-CYCLIN D1; Table 36, fold selectivity for CDK2 over CDK4, recombinant CDK kinases): E (E, <20)
- IC50 (CDK1-CYCLIN B; ADP-Glo, 1000 μM ATP, Table 11): 10 to 50 nM
- CDK2 Fold selectivity, CDK1 (CDK1-CYCLIN B; Table 12): B (B, >100 and ≤500)
- IC50 (CDK1-CYCLIN B; [3]): 10 to 50 nM
- CDK2 Fold selectivity against CDK1 (CDK1-CYCLIN B; Table 36, fold selectivity for CDK2 over CDK1, recombinant CDK kinases): E (E, <20)
- IC50 [2]: 2 to 10 nM
- IC50 (CDK2-CYCLIN E1; ADP-Glo, 1000 μM ATP, Table 11): ≤ 10 nM
- IC50 (CDK2-CYCLIN E1; [3]): ≤ 10 nM
- IC50 (CDK6-CYCLIN D3; ADP-Glo, 1000 μM ATP, Table 11): 100 to 500 nM
- CDK2 Fold selectivity, CDK6 (CDK6-CYCLIN D3; Table 12): A (A, ≥500)
- IC50 (CDK6-CYCLIN D3; [3]): 50 to 100 nM
- CDK2 Fold selectivity against CDK6 (CDK6-CYCLIN D3; Table 36, fold selectivity for CDK2 over CDK6, recombinant CDK kinases): D (D, >20 and ≤50)
- IC50 (CDK9-CYCLIN T1; ADP-Glo, 1000 μM ATP, Table 11): 100 to 500 nM
- CDK2 Fold selectivity, CDK9 (CDK9-CYCLIN T1; Table 12): A (A, ≥500)
- IC50 (CDK9-CYCLIN T1; [3]): 50 to 100 nM
- CDK2 Fold selectivity against CDK9 (CDK9-CYCLIN T1; Table 36, fold selectivity for CDK2 over CDK9, recombinant CDK kinases): D (D, >20 and ≤50)
SMILES: O=C1N[C@H]2C[C@H](COc3cc(ccn3)Nc3cc(n[nH]3)[C@H]3CC[C@H](C3)O1)C2 [Compound 108, (1^1S,1^3R,7^1R,7^3S,Z)-2^1H-5,10-dioxa-3,8-diaza-4(4,2)-pyridina-2(3,5)-pyrazola-1(1,3)-cyclopentana-7(1,3)-cyclobutanacyclodecaphan-9-one]
- IC50 (CCNE1-normal SKOV3 cells): 250 to 1250 nM
